Active and inactive are the calls of the source. No cut-off for these calls is given here.
How the values were obtained:
[1] = Selectivity index, ratio of CC50 for cytotoxicity against LPS/IFNgamma induced mouse RAW264.7 cells to IC50 for antiinflammatory activity in mouse RAW264.7 cells assessed as inhibition in LPS/IFNgamma-induced NO production; format: toxicity, cell-based; details: RAW264.7 cells induced with LPS/IFNgamma, read-out: Ratio IC50
[2] = Cytotoxicity against TNF-alpha induced HEK293T cells assessed as inhibition of cell growth preincubated for 24 hrs followed by TNFalpha stimulation and measured after 4 hrs by SRB assay; format: toxicity, cell-based, HEK-293T; details: human, HEK293T cells induced with TNF-alpha; time 28 hrs
[3] = Cytotoxicity against LPS/IFNgamma induced mouse RAW264.7 cells assessed as inhibition of cell growth preincubated for 24 hrs followed by LPS/IFNgamma stimulation and measured after 24 hrs by SRB assay; format: toxicity, cell-based; details: RAW264.7 cells induced with LPS/IFNgamma, time 48 hrs
[4] = Selectivity index, ratio of CC50 for cytotoxicity against TNF-alpha induced HEK293T cells to IC50 for inhibition of TNF-alpha induced NF-kappaB activation in HEK293T cells; format: toxicity, cell-based; details: human, HEK293T cells induced with TNF-alpha; read-out: Ratio IC50
RAW264.7 [5] = experiment: Antiinflammatory activity in mouse RAW264.7 cells assessed as inhibition in LPS/IFNgamma-induced NO production preincubated for 2 hrs followed by LPS/IFNgamma stimulation and measured after 24 hrs by Griess reagent based assay; format: functional, cell-based
[6] = Inhibition of TNF-alpha induced NF-kappaB activation in HEK293T cells preincubated for 4 hrs and followed by TNF-alpha stimulation and measured after 4 hrs by dual-luciferase reporter assay; format: cell-based; details: Homo sapiens, HEK-293T
[7] = Toxicity in Kunming mouse assessed as number of mouse survived at 82 mg/kg, po measured for 15 days; format: organism-based; details: in vivo, 360 h, time 15 day
Mus musculus [8] = species: Mus musculus; experiment: Anti-inflammatory activity in C57BL/6 mouse model of DSS-induced acute ulcerative colitis; format: functional, organism-based
[9] = Toxicity in Kunming mouse assessed as number of mouse survived at 40 mg/kg, po measured for 15 days; format: organism-based; details: in vivo, 360 h, time 15 day
[10] = Toxicity in Kunming mouse assessed as number of mouse survived at 117 mg/kg, po measured for 15 days; format: organism-based; details: in vivo, 360 h, time 15 day
[11] = Toxicity in po dosed Kunming mouse assessed as maximum tolerated dose; format: organism-based; details: in vivo
[12] = Toxicity in Kunming mouse assessed as increase in body weight at 40 mg/kg, po measured for 15 days (reference value: 12.38%); format: organism-based; details: in vivo, 360 h, time 15 day
[13] = Toxicity in Kunming mouse assessed as effect on kidney by measuring systemic edema at 117 mg/kg, po measured for 15 days; format: organism-based; details: in vivo, 360 h, time 15 day
[14] = Toxicity in Kunming mouse assessed as number of mouse survived at 57 mg/kg, po measured for 15 days; format: organism-based; details: in vivo, 360 h, time 15 day
[15] = Toxicity in Kunming mouse assessed as increase in body weight at 42 mg/kg, po measured for 15 days (reference value: 12.38%); format: organism-based; details: in vivo, 360 h, time 15 day
[16] = Toxicity in Kunming mouse assessed as number of mouse survived at 53 mg/kg, po measured for 15 days; format: organism-based; details: in vivo, 360 h, time 15 day
[17] = Toxicity in Kunming mouse assessed as number of mouse survived at 66 mg/kg, po measured for 15 days; format: organism-based; details: in vivo, 360 h, time 15 day
[18] = Toxicity in Kunming mouse assessed as number of mouse survived at 42 mg/kg, po measured for 15 days; format: organism-based; details: in vivo, 360 h, time 15 day
RAW264.7 [19] = experiment: Antiinflammatory activity in mouse RAW264.7 cells assessed as inhibition in LPS/IFNgamma-induced NO production at 200 uM preincubated for 2 hrs followed by LPS/IFNgamma stimulation and measured after 24 hrs by Griess reagent based assay relative to control; format: functional; details: time 26 hrs
Mus musculus [20] = experiment: Anti-inflammatory activity in C57BL/6 mouse model of DSS-induced acute ulcerative colitis assessed as reduction in ulcerations at 100 to 300 mg/kg, po administered once a day for 7 days by H and E staining based analysis; format: functional, organism-based; details: dose 100-300 mg/kg, time 7.0 day
Mus musculus [21] = experiment: Anti-inflammatory activity in C57BL/6 mouse model of DSS-induced acute ulcerative colitis assessed as reduction in p65 expression in colon at 50 mg/kg, po administered once a day for 7 days by immunohistochemical analysis; format: functional, organism-based; details: time 7.0 day

| Structure (SMILES) | selectivity ratio [1] | CC50 at 4 h [2] | CC50 at 24 h [3] | selectivity ratio [4] | IC50 (RAW264.7 [5]) | IC50 [6] | other results |
| --- | --- | --- | --- | --- | --- | --- | --- |
| COc1ccc(C#CC2CC3OC2c2ccccc23)cc1 (centres undefined) | 1.19 | 181 µM | 191 µM | 1.15 | 161 µM | 157 µM | – |
| COC(=O)C1=C(C(=O)OC)C2C=CC1O2 | 3.1 | 99.9 µM | 12.8 µM | 1.04 | 4.12 µM | 96.1 µM | Activity [7]: 1; Activity (Mus musculus [8]): inactive; Activity [9]: 0; Activity [10]: 3; MTD [11]: 40 mg/kg; Activity [12]: 10.6%; Activity [13]: Toxic; Activity [14]: 1 |
| O=C1OC(=O)C2C3CCC(O3)C12 (centres undefined) [DEMETHYL-CANTHARIDIN] | 0.79 | > 200 µM | 78.1 µM | > 1.91 | 99.1 µM | 105 µM | Activity [15]: 15.62%; Activity [7]: 3; Activity (Mus musculus [8]): inactive; Activity [16]: 0; Activity [17]: 1; MTD [11]: 53 mg/kg; Activity [18]: 0 |
| COC(=O)C1=C(C(=O)OC)C2OC1CC2C#Cc1ccccc1 (centres undefined) | 1.53 | 62.1 µM | 5.69 µM | 3.21 | 3.72 µM | 19.3 µM | – |
| CCOC(=O)C1=C(C(=O)OCC)C2C=CC1O2 | 5.28 | 59.9 µM | 20.4 µM | 1.77 | 3.86 µM | 33.7 µM | Activity [7]: 1; Activity (Mus musculus [8]): inactive; Activity [9]: 0; Activity [10]: 3; MTD [11]: 57 mg/kg; Activity [12]: 2.31%; Activity [13]: Toxic; Activity [14]: 0 |
| COc1cc2c(cc1OC)C1C=CC2O1 | – | 114 µM | > 200 µM | 5.72 | > 200 µM | 19.9 µM | inhibition at 200 µM (RAW264.7 [19]): ~30% |
| COc1ccc(C#CC2CC3OC2c2c(OC)ccc(OC)c23)cc1 (centres undefined) | 1.05 | 199 µM | 200 µM | 1.45 | 190 µM | 137 µM | – |
| COc1ccc(C#CC2CC3OC2c2cc(Br)c(Br)cc23)cc1 (centres undefined) | 1.07 | 140 µM | 198 µM | 4.26 | 186 µM | 39.4 µM | – |
| COC(=O)C1=C(C(=O)OC)C2OC1CC2C#Cc1ccc(F)cc1 (centres undefined) | 1.67 | 26.5 µM | 6.25 µM | 4.75 | 3.75 µM | 5.58 µM | – |
| COC(=O)C1=C(C(=O)OC)C2OC1CC2C#Cc1ccc(Br)cc1 (centres undefined) | 1.46 | 21.7 µM | 5.06 µM | 4.9 | 3.47 µM | 4.42 µM | – |
| C1=CC2OC1c1ccccc12 | – | 111 µM | > 200 µM | 5.65 | > 200 µM | 19.7 µM | inhibition at 200 µM (RAW264.7 [19]): ~30% |
| CCOC(=O)C1=C(C(=O)OCC)C2OC1CC2C#Cc1ccc(OC)cc1 (centres undefined) | 3.73 | 52.8 µM | 18.9 µM | 4.34 | 5.07 µM | 12.1 µM | – |
| CC(C)(C)OC(=O)C1=C(C(=O)OC(C)(C)C)C2C=CC1O2 | 3.46 | 80.3 µM | 12.8 µM | 1.91 | 3.7 µM | 42 µM | – |
| COC(=O)C1=C(C(=O)OC)C2OC1CC2C#Cc1ccccc1OC (centres undefined) | 1.45 | 30.7 µM | 5.46 µM | 3.09 | 3.77 µM | 9.92 µM | Activity (Mus musculus [20]): Active |
| COc1ccc(C#CC2CC3OC2c2cc(OC)c(OC)cc23)cc1 (centres undefined) | 0.99 | 198 µM | 184 µM | 1.48 | 185 µM | 133 µM | – |
| COc1ccc(OC)c2c1C1C=CC2O1 | – | 118 µM | > 200 µM | 4.79 | > 200 µM | 24.6 µM | inhibition at 200 µM (RAW264.7 [19]): ~30% |
| CSC(=N)N | > 15.8 | – | > 200 µM | – | 12.6 µM | – | – |
| C[C@@]12C(=O)OC(=O)[C@]1(C)[C@H]1CC[C@@H]2O1 [CANTHARIDIN] | 0.38 | – | 3.88 µM | – | 10.2 µM | – | – |
| Brc1cc2c(cc1Br)C1C=CC2O1 | – | 194 µM | > 200 µM | 2.7 | > 200 µM | 71.8 µM | inhibition at 200 µM (RAW264.7 [19]): ~30% |
| Nc1ccc(O)c(C(=O)O)c1 | – | – | – | – | – | – | Activity (Mus musculus [21]): inactive |
| C[C@@H]1C[C@H]2[C@@H]3CCC4=CC(=O)C=C[C@]4(C)[C@@]3(F)[C@@H](O)C[C@]2(C)[C@@]1(O)C(=O)CO [DEXAMETHASONE] | – | > 200 µM | – | > 16.4 | – | 12.2 µM | – |
| COC(=O)C1=C(C(=O)OC)C2OC1CC2C#Cc1ccc(OC)cc1 (centres undefined) | 4.15 | 22.4 µM | 7.51 µM | 0.9 | 1.81 µM | 24.9 µM | – |
| COC(=O)C1=C(C(=O)OC)C2OC1CC2C#Cc1ccc(Cl)cc1 (centres undefined) | 1.48 | 20.9 µM | 5.23 µM | 1.74 | 3.53 µM | 12 µM | – |
| COC(=O)C1=C(C(=O)OC)C2OC1CC2C#Cc1cc(OC)cc(OC)c1 (centres undefined) | 1.37 | 34.4 µM | 5.06 µM | 5.45 | 3.7 µM | 6.3 µM | – |
